Source: patent US20080254042A1, “Novel Use of Prrp and Receptor Thereof” (Takeda Pharmaceutical Company Limited, priority 2004, published 2008)

Assays:
[1] = test system: PrRP knockout mice and wild-type mice; assay: Survival of PrRP knockout and wild-type mice after MPTP administration; type: in vivo, mouse; settings: MPTP i.p. every 2 hours 4 times at 20 μg/kg, five days after administration
Experimental: MPTP (methyl-phenyl-tetrahydropyridine) known to produce animal models of Parkinson's disease was intraperitoneally administered to PrRP knockout mice and wild-type mice every 2 hours 4 times at the dose of […]. Five days after the administration, 11 out of 21 wild-type mice survived with a survival rate of 52%, whereas 10 out of 10 PrRP knockout mice survived, meaning that there was no dead animal and the survival rate was 100%.

[2] = test system: nigral dopamine cells; assay: Number of tyrosine hydroxylase positive (dopamine) cells in the substantia nigra after MPTP, PrRP knockout vs wild-type mice; type: in vivo, mouse; settings: FIG. 1
Source text: It is known that MPTP (methyl-phenyl-tetrahydropyridine) causes degenerative loss of nigral dopamine cells to induce Parkinson's disease. Thus, the brains were excised from PrRP knockout mice and wild-type mice, to which MPTP or saline for control was given as in EXAMPLE 1, and then immersed and fixed in a 0.07M phosphate buffer (pH 7.4) containing 5% acrolein (Tokyo Chemical Industry). The brains were then immersed in 30% sucrose-containing phosphate buffered saline (PBS) for more than 2 days. The free-floating technique was used for immunohistochemistry. A frozen frontal section in 40 μm thickness of the brain was prepared using a cryomicrotome. Next, the section was soaked in and washed with PBS for water immersion, then treated with 0.5% sodium metaperiodate-containing PBS (20 minutes) to inactivate the endogenous peroxidase activity, and the aldehyde group was reduced by treatment with 1% sodium borohydride-containing PBS (20 minutes). In addition, non-specific reactions were blocked by treatment with 1% normal horse serum and 0.4% Triton X-100-containing BPS (TNBS) (an hour). […] The number of tyrosine hydroxylase positive cells, which are dopamine cells in the substantia nigra, was counted under an optical microscope.

[3] = Motor activity assessed with a rotarod after MPTP, PrRP knockout vs wild-type mice; type: in vivo, mouse; settings: FIG. 2
Experimental: In order to examine the relation of Parkinson's disease to PrRP, decrement of motor activities known as symptoms of Parkinson's disease induced by administration of MPTP was compared between PrRP knockout mice and wild-type mice. The motor activity of each mouse was assessed with a rotarod. […] Turning to the PrRP knockout mice, there was no difference between the group administered with MPTP and the group administered with saline for control, and the motor activity was normal (FIG. 2). These phenomena reveal that onset of Parkinson's disease induced by MPTP was suppressed in the PrRP knockout mice.

[4] = Catecholamine level in the striatum after MPTP, PrRP knockout vs wild-type mice; type: in vivo, mouse; settings: seven days after final administration, FIG. 3
Experimental: MPTP or saline for control was administered to PrRP knockout mice and wild-type mice in a manner similar to EXAMPLE 1. Seven days after the final administration, the striatal sites were immediately excised from the brains, frozen in liquid nitrogen and then stored at −80° C. Catecholamines such as Dopamine (DA), DOPAK, HVA, etc. were measured as follows. First, the excised corpus striata were homogenized in 0.2M perchloric acid containing 100 ng/mL isoproterenol (Sigma), centrifuged at 15,000 g for 20 minutes at 0° C., and filtered through a 0.22 μm filter. The final solution, 10 μL, was separated under the conditions at flow rate of 0.5 mL/min in 83% 0.1 M acetic acid-citrate buffer (pH 3.5)/17% methanol solution containing 190 mg/L SDS and 5 mg/L EDTA-2Na through EICOMPAK SC-50DS column (3.0 mm×150 mm, EICOM), and determined by electrochemical detection.

[5] = test system: nigral dopamine cells; assay: Number of TH-positive cells in the substantia nigra pars compacta, MPTP after intraventricular antibody; settings: C57BL/6J mice given normal mouse IgG i.c.v., then MPTP 20 mg/kg i.p. 4 times every 2 hours; P<0.001; FIG. 4
Source text: (§1) Male C57BL/6J mouse (CLEA Japan) of 14 weeks old was fixed on a brain stereotaxic apparatus under anesthesia with pentobarbital (Dainippon Pharmaceutical) and the skull surface was exposed. After the skull was dried with a drier, the coordinates of bregma were located to determine the coordinates of the left lateral ventricle (AP: −0.2 mm, lateral: +1.0 mm, depth: +2.5 mm from bregma). After a burr hole was made with a dental drill on the skull across the bregma from the location of the left lateral ventricle, anchor screws (EICOM) were implanted to fix a dental cement (GC Corp., Unifast II). A hole was made with a dental drill (Urawa Corp., Model: UC100) for guide cannulation to vertically insert into the skull on the left lateral ventricle, and a guide cannula (EICOM) was eased down toward the ventricle. After leakage of cerebrospinal fluids was confirmed, the guide cannula was fixed on the coordinates determined. The dental cement was used for fixation and applied until the anchor screws were embedded. After it was confirmed that the cement was dried, the mouse was released from the stereotaxic apparatus. […]
(§2) The antibody solution was diluted in Centriprep (Millipore). Absorbance (280 nm) was measured to determine the antibody concentration, and the antibody was diluted in aseptic PBS (−) to 9.97 mg/mL. […]

[6] = test system: striatal dopamine nerve fibers; assay: TH-positive fiber density in the striatum, MPTP after intraventricular antibody; settings: C57BL/6J mice given normal mouse IgG i.c.v., then MPTP 20 mg/kg i.p. 4 times every 2 hours; P<0.05; FIG. 5
Source text: as §1, §2

For CN1CC=C(c2ccccc2)CC1 [MPTP], which survival rate ([1]; PrRP knockout mice, 10 out of 10 survived) is on record?
The survival rate was 100%.

What about the survival rate ([1]; wild-type mice, 11 out of 21 survived) of the same compound?
The survival rate was 52%.

And the “decrease in number of tyrosine hydroxylase positive cells in the substantia nigra, MPTP group vs saline group” value ([2]; PrRP knockout mice, no significant change)?
The value was “about 10%”.

What about the “decrease in number of tyrosine hydroxylase positive cells in the substantia nigra, MPTP group vs saline group” value ([2]; wild-type mice, significant) of the same compound?
Its value is “about 60%”.

And the “motor activity (rotarod), MPTP group vs saline group” value ([3]; PrRP knockout mice)?
The value was “no difference”.

What about the “motor activity (rotarod), MPTP group vs saline group” value ([3]; wild-type mice) of the same compound?
Its value is “markedly decreased”.

What about the “striatal dopamine (DA), DOPAC and HVA levels after MPTP” value ([4]; PrRP knockout mice) of the same compound?
The value was “the degree of the decrease was smaller”.

And the “striatal dopamine (DA), DOPAC and HVA levels after MPTP” value ([4]; wild-type mice)?
The value was “decreased markedly”.

What about the “dopamine cells in the substantia nigra pars compacta, vs saline group” value [5] of the same compound?
The value was “significant decrease”.

And the “striatal dopamine nerve fibers (image analysis), vs saline group” value [6]?
Its value is “significant decrease”.
